Experimental data from patent US20070065519A1, “Copper ion-producing composition” (priority 2005, published 2007).

Assays:
Staphylococcus aureus = assay: germicidal testing at 0.4 ppm chlorine (Comparative Example 2); format: cell-based; details: concentration of 0.4 ppm
Legionella ssp. = format: cell-based
Escherichia coli = assay: germicidal testing at 0.4 ppm chlorine (Comparative Example 2); format: cell-based; details: concentration of 0.4 ppm
[1] = time course of residual chlorine concentration in 42° C. hot water; details: chlorine level 0.4 ppm at start

OCl [Sodium hypochlorite]
germicidal activity (Staphylococcus aureus): no germicidal activity | germicidal activity (Legionella ssp.): no germicidal activity | germicidal activity (Escherichia coli): no germicidal activity | residual concentration in the water (chlorine) ([1]; after 30 minutes): 0.3 ppm | residual concentration in the water (chlorine) ([1]; after 60 minutes): 0.2 ppm | residual concentration in the water (chlorine) ([1]; at 90 minutes): 0 ppm
